# Measurements published in patent US10060933B2, “Methods for diagnosis and treatment of amyotrophic lateral sclerosis based on an increased level of interaction between TDP-43 polypeptide and NF-KB P65 polypeptide” (UNIVERSITE LAVAL, priority 2011, dated 2018).
# “Also recorded” adds a separate entry of the source.
# What was measured:
# [1] = tested on: NF-κB (phospho-p65^Ser536); experiment: Western blot of phospho-p65^Ser536 in challenged neuronal cells; assay type: cell-based, mouse; details: glutamate and conditioned media challenged neuronal cells; WA
# Text: […] is known to modulate p53-p38MAPK dependent apoptosis in neurons, when treated with DNA damage inducing chemicals like camptothecin^34, glutamate excitotoxicity^35 or general bystander mediated killing of neurons by microglia^14. To assess the potential contribution of NF-κB to the death of TDP-43 overexpressing neurons exposed to toxic injury, we prepared cultures of primary cortical neurons and microglia from transgenic mice overexpressing TDP-43^wt or TDP-43 mutants. […] The LDH cytotoxicity was determined 24 hrs later (FIG. 14A). […] We then incubated cortical neurons with the conditioned media from primary microglial culture, which were challenged with LPS at a concentration of 50 ng/ml of media. […] As WA might exert multiple pharmacological actions, we tested a more specific molecular approach for inhibiting NF-κB. Since, activation of NF-κB requires its dissociation from the inhibitory molecule, IκB, we expressed a stable mutant super-repressive form of IκB-α (Ser 32/Ser36-to-alanine mutant; IκB^SR) and evaluated its effects on neuronal death. Cultured cortical neurons from TDP-43 transgenic and non-transgenic mice were transfected with a plasmid construct, expressing IκB^SR, and exposed to either 10 μM glutamate for 30 min or incubated in conditioned media from LPS-stimulated microglia of same genotype. […]
# TDP-43^G348C mice = experiment: Accelerating rotarod in TDP-43^G348C mice; assay type: in vivo, mouse; details: WA-treated vs untreated TDP-43^G348C mice
# Experimental: Accelerating rotarod analysis was performed in TDP-43^G348C mice at various ages from 8 wk to 52 wk, and time taken by the mice to fall from the rotarod is used as rotarod performance. WA treatment period is marked as drug treatment period. Error bars represent mean±SEM (n=10 each group) (FIG. 25).
# Accelerating rotarod was performed on mice at 4 rpm speed with 0.25 rpm/sec acceleration as described elsewhere^30. Mice were subjected to three trials per session and every two weeks.
# GFAP = GFAP immunofluorescence of spinal cord sections; assay type: in vivo, mouse; details: GFAP-luc/TDP-43^Wt mice, treated vs untreated
# Experimental: To study the in vivo effect of NF-κB inhibition on disease progression, we injected TDP-43^wt; GFAP-luc double transgenic mice with 3 mg/kg body weight of WA twice a week for 10-weeks starting at 30-weeks. […] We used TDP-43^wt; GFAP-luc double transgenic mice because the reporter luciferase (luc) allowed the longitudinal and non-invasive biophotonic imaging with CCD camera of the GFAP promoter activity which is a target of activated NF-κB. To analyse the spatial and temporal dynamics of astrocytes activation/GFAP induction in TDP-43 mouse model, we performed series of live imaging experiments. […] The downregulation of GFAP promoter activity was further confirmed in these mice using GFAP immunofluorescence of spinal cord sections of TDP-43^Wt mice (both drug-treated and untreated) (FIG. 8F). […] Down-regulation of GFAP along with reduction in active p65 levels in withaferin treated mice prompted us to analyse behavioural changes in these mice. […] The withaferin treated mice also had 40% reduction in the number of partially denervated neuromuscular junction (NMJ) (FIGS. 8E&G).
# 4% Paraformaldehyde (PFA) fixed spinal cord and brain sections of mice were sectioned and fixed on slides. For immunohistochemistry, tissues were treated with hydrogen-peroxide solution before permeabilisation. […]
# neuromuscular junctions = experiment: Neuromuscular junction staining and count; assay type: in vivo, mouse
# Experimental: For monitoring the neuromuscular junctions, 25 mm thick muscle sections were incubated for 1 h in 0.1 M glycine in PBS for 2 h at RT and then stained with Alexa Fluor 594-conjugated α-bungarotoxin (1:2000, Molecular Probes/Invitrogen detection technologies, Carlsbad, Calif., USA) diluted in 3% BSA in PBS for 3 h at RT. After washing in PBS, the muscle sections were blocked in 3% BSA, 10% goat serum and 0.5% Triton X-100 in PBS overnight at 48° C. The next day, the sections were incubated with mouse antineurofilament antibody 160 K (1:2000, Temecula, Calif., USA) and mouse anti-synaptophysin (Dako, Mississauga, ON, Canada) in the same blocking solution overnight at 48° C. After washing for 5 h, muscle sections were incubated with goat anti-mouse Alexa Fluor 488-conjugated secondary antibody (Probes/Invitrogen detection technologies, Carlsbad, Calif., USA) diluted 1:500 in blocking buffer for 3 h at RT. Three hundred neuromuscular junctions were counted per animal sample, discriminating both innervated and denervated junctions as described above. […]
smiles,measurement,setting,value
CC1=C(CO)C(=O)O[C@@H]([C@@H](C)[C@H]2CC[C@H]3[C@@H]4C[C@H]5O[C@]56[C@@H](O)C=CC(=O)[C@]6(C)[C@H]4CC[C@]23C)C1 [Withaferin A],levels of phospho-p65^Ser536 (inhibition of NF-κB),[1],reduced levels
same,"motor performance (accelerating rotarod, time to fall)",TDP-43^G348C mice,significantly better motor performance
same,GFAP activation (GFAP immunofluorescence of spinal cord sections),GFAP,downregulation; also recorded: significantly low GFAP activation
same,reduction in the number of partially denervated neuromuscular junction (NMJ),neuromuscular junctions; withaferin treated TDP-43^Wt mice vs untreated,40%
same,number of partially denervated muscle (NMJ frequency),"neuromuscular junctions; withaferin treated TDP-43^Wt mice, age-matched untreated 15±5%",9±4%
